US9738652B2, “Spiro urea compounds as RSV antiviral compounds” (priority 2014, dated 2017)

Tests used:
rgRSV224 virus = experiment: Antiviral activity: rgRSV224 (GFP) replication in HeLa cells; conditions: human respiratory syncytial virus, 72 h, read-out: RSV HELA pEC50 (converted)
Procedure: Black 384-well clear-bottom microtiter plates (Corning, Amsterdam, The Netherlands) were filled via acoustic drop ejection using the echo liquid handler (Labcyte, Sunnyvale, Calif.). 200 nL of compound stock solutions (100% DMSO) were transferred to the assay plates. 9 serial 4-fold dilutions of compound were made, creating per quadrant the same compound concentration. The assay was initiated by adding 10 μL of culture medium to each well (RPMI medium without phenol red, 10% FBS-heat inactivated, 0.04% gentamycin (50 mg/mL). All addition steps are done by using a multidrop dispenser (Thermo Scientific, Erembodegem, Belgium). Next, rgRSV224 virus (MOI=1) diluted in culture medium was added to the plates. rgRSV224 virus is an engineered virus that includes an additional GFP gene (Hallak L K, Spillmann D, Collins P L, Peeples M E. Glycosaminoglycan sulfation requirements for respiratory syncytial virus infection; Journal of virology (2000), 74(22), 10508-13) and was in-licensed from the NIH (Bethesda, Md., USA). Finally, 20 μL of a HeLa cell suspension (3,000 cells/well) were plated. Medium, virus- and mock-infected controls were included in each test. The wells contain 0.05% DMSO per volume. Cells were incubated at 37° C. in a 5% CO2 atmosphere. Three days post-virus exposure, viral replication was quantified by measuring GFP expression in the cells by an in house developed MSM laser microscope (Tibotec, Beerse, Belgium). The EC50 was defined as the 50% inhibitory concentration for GFP expression. In parallel, compounds were incubated for three days in a set of white 384-well microtiter plates (Corning) and the cytotoxicity of compounds in HeLa cells was determined by measuring the ATP content of the cells using the ATPlite kit (Perkin Elmer, Zaventem, Belgium) according to the manufacturer's instructions. The CC50 was defined as the 50% concentration for cytotoxicity.

[1] = Cytotoxicity in HeLa cells (ATPlite, CC50) used for selectivity index; conditions: human
Procedure: The wells contain 0.05% DMSO per volume. Cells were incubated at 37° C. in a 5% CO2 atmosphere. […] In parallel, compounds were incubated for three days in a set of white 384-well microtiter plates (Corning) and the cytotoxicity of compounds in HeLa cells was determined by measuring the ATP content of the cells using the ATPlite kit (Perkin Elmer, Zaventem, Belgium) according to the manufacturer's instructions. The CC50 was defined as the 50% concentration for cytotoxicity.

SMILES	melting point [°C]	EC50 (rgRSV224 virus) [nM]	selectivity ratio at 3 days [1]
CNC(=O)N1CCC2(CC1)C(=O)N(Cc1nc3cc(Cl)ccc3n1CCCC#N)c1cnccc12 [Co. No. 26, 1′-[[5-chloro-1-(3-cyanopropyl)benzimidazol-2-yl]methyl]-N-methyl-2′-oxo-spiro[piperidine-4,3′-pyrrolo[2,3-c]pyridine]-1-carboxamide]	99.81	0.055	> 1.82e+06
CC(C)NC(=O)N1CCC2(CC1)C(=O)N(Cc1cc3cc(Cl)ccc3n1CCCC#N)c1cnccc12 [Co. No. 28, 1′-[[5-chloro-1-(3-cyanopropyl)indol-2-yl]methyl]-N-isopropyl-2′-oxo-spiro[piperidine-4,3′-pyrrolo[2,3-c]pyridine]-1-carboxamide]	–	2.14	25400
